Assay results reported in patent US8859535B2, “Hydroxy substituted isoquinolinone derivatives” (Novartis AG, priority 2011, dated 2014).

Key:
[1] = molecular target: T1, human MDM2 protein (amino acids 2-188) (Homo sapiens, UniProt Q00987); assay: p53-MDM2 TR-FRET assay (p53-MDM2 Assay 1); type: binding; details: 1.25 nM MDM2-biotinylated, 10 nM Cy5-p53 peptide; read-out: IC50 (μM) of p53-Hdm2 inhibition (TR-FRET) Assay 1
T1 construct: human MDM2 protein (amino acids 2-188); made in house
Procedure, shortened: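 C-terminally biotinylated MDM2 (aa 2-188, 1.25 nM) or MDM4 (aa 2-185, 2.5 nM) with Eu-streptavidin (0.625 nM), 15 min preincubation, then 10 nM Cy5-p53 peptide (aa18-26), 15 min room temperature; TR-FRET 665/620 nm ratio, IC50 by curve fit. Modified MDM2 Assay 2 uses 0.1 nM MDM2 and 0.1 nM Eu-streptavidin.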

[2] = molecular target: T2, human MDM4 protein (amino acids 2-185) (Homo sapiens, UniProt O15151); assay: p53-MDM4 TR-FRET assay (p53-MDM4 Assay 1); type: binding; details: 2.5 nM MDM4-biotinylated, 10 nM Cy5-p53 peptide; read-out: IC50 (μM) of p53-Hdm4 inhibition (TR-FRET) Assay 1
T2 construct: human MDM4 protein (amino acids 2-185); made in house
T2 sequence (O15151 2-185): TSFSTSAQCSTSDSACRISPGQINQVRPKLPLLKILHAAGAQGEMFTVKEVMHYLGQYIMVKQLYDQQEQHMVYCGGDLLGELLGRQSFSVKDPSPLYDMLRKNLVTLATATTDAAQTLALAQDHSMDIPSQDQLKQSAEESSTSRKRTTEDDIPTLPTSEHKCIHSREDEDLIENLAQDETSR
Procedure: Time Resolved Fluorescence Energy Transfer (TR-FRET) Assay
The inhibition of p53-MDM2 and p53-MDM4 interactions is measured by time resolved fluorescence energy transfer (TR-FRET). Fluorescence energy transfer (or Foerster resonance energy transfer) describes an energy transfer between donor and acceptor fluorescent molecules. For this assay, human MDM2 protein (amino acids 2-188) and human MDM4 protein (amino acids 2-185), tagged with a C-terminal biotin moiety, are used in combination with a Europium labeled streptavidin (Perkin Elmer, Inc., Waltham, Mass., USA) serving as the donor fluorophore. The p53 derived, Cy5 labeled peptide Cy5-TFSDLWKLL (p53 aa18-26) is the energy acceptor. Upon excitation of the donor molecule at 340 nm, binding interaction between MDM2 or MDM4 and the p53 peptide induces energy transfer and enhanced response at the acceptor emission wavelength at 665 nm. Disruption of the formation of the p53-MDM2 or p53-MDM4 complex due to an inhibitor molecule binding to the p53 binding site of MDM2 or MDM4 results in increased donor emission at 620 nm. The ratiometric FRET assay readout is calculated from the raw data of the two distinct fluorescence signals measured in time resolved mode (fluorescence 665 nm/fluorescence 620 nm×1000).
After addition of 1.25 nM MDM2-biotinylated or 2.5 nM MDM4-biotinylated (internal preparations), and 0.625 nM Europium labeled streptavidin (Perkin Elmer), the solution is pre-incubated for 15 minutes at room temperature, then 10 nM Cy5-p53 peptide (internal preparation) is added before an incubation at room temperature for 15 minutes prior to reading the plate. For measurement of samples, a Victor II microplate reader (Perkin Elmer) is used with the following settings: Excitation 340 nm, Emission Donor 620 nm and Emission Acceptor 665 nm. IC50 values are calculated by curve fitting using XLfit. If not specified, reagents are purchased from Sigma-Aldrich Chemie GmBH, Buchs, Switzerland.
This assay was used to evaluate compounds displaying inhibition of p53-MDM2 interaction and p53-MDM4 interaction at IC50s of 0.005 to 50 μM (p53-MDM2 Assay 1 and p53-MDM4 Assay 1, respectively). For selected compounds displaying IC50s between […] on MDM2, a slightly modified assay is used with the following adaptations: 0.1 nM MDM2, 0.1 nM Europium labeled streptavidin and Tecan genios Pro is used as a microplate reader for the fluorescence measurements (p53-MDM2 Assay 2).

T1 sequence (Q00987 2-188): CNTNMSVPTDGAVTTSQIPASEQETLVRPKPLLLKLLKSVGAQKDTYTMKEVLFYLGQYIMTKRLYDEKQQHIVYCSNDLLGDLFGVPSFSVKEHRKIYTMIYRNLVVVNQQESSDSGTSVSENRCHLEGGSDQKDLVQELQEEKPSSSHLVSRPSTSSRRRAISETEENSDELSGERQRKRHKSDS

SMILES	IC50 [1] [µM]	IC50 [2] [µM]
COc1cc2c(cc1OC(C)C)[C@H](c1ccc(Cl)cc1)N(c1ccc([C@](C)(O)C3CC[S+]([O-])CC3)cc1)C(=O)C2 (stereo partly drawn) [Example 170, (S)-1-(4-Chloro-phenyl)-2-{4-[(R)-1-hydroxy-1-(1-oxo-hexahydro-thiopyran-4-yl)-ethyl]-phenyl}-7-isopropoxy-6-methoxy-1,4-dihydro-2H-isoquinolin-3-one]	0.168	62.5
COc1cc2c(cc1OC(C)C)[C@H](c1ccc(Cl)cc1)N(c1ccc(C(C)(O)C3CCN(C(C)=O)CC3)cc1)C(=O)C2 (stereo partly drawn) [Example 31, (S)-2-{4-[1-(1-Acetyl-piperidin-4-yl)-1-hydroxy-ethyl]-phenyl}-1-(4-chloro-phenyl)-7-isopropoxy-6-methoxy-1,4-dihydro-2H-isoquinolin-3-one]	0.0023	2.31
COc1cc2c(cc1OC(C)C)[C@H](c1ccc(Cl)cc1)N(c1ccc(C(C)(O)C3CNC3)cc1)C(=O)C2 (stereo partly drawn) [Example 65, (S)-2-[4-(1-Azetidin-3-yl-1-hydroxy-ethyl)-phenyl]-1-(4-chloro-phenyl)-7-isopropoxy-6-methoxy-1,4-dihydro-2H-isoquinolin-3-one]	0.0423	41.2
COCCOc1cc2c(cc1OC(C)C)[C@H](c1ccc(Cl)cc1)N(c1ccc(C(C)(O)C3CCOCC3)cc1)C(=O)C2 (stereo partly drawn) [Example 145, (S)-1-(4-Chloro-phenyl)-2-{4-[1-hydroxy-1-(tetrahydro-pyran-4-yl)-ethyl]-phenyl}-7-isopropoxy-6-(2-methoxy-ethoxy)-1,4-dihydro-2H-isoquinolin-3-one]	0.0083	3
COc1cc2c(cc1OC(C)C)[C@H](c1ccc(Cl)cc1)N(c1ccc(C3(O)CCCC3)cc1)C(=O)C2 [Example 50, (S)-1-(4-Chloro-phenyl)-2-[4-(1-hydroxy-cyclopentyl)-phenyl]-7-isopropoxy-6-methoxy-1,4-dihydro-2H-isoquinolin-3-one]	0.246	90.2
COc1cc2c(cc1OC(C)C)[C@H](c1ccc(Cl)cc1)N(c1ccc(C(C)(O)C3CN(S(C)(=O)=O)C3)cc1)C(=O)C2 (stereo partly drawn) [Example 73, (S)-1-(4-Chloro-phenyl)-2-{4-[1-hydroxy-1-(1-methanesulfonyl-azetidin-3-yl)-ethyl]-phenyl}-7-isopropoxy-6-methoxy-1,4-dihydro-2H-isoquinolin-3-one]	0.0179	18.9
COc1cc2c(cc1OC(C)C)[C@H](c1ccc(Cl)cc1)N(c1ccc(C(C)(O)C34CCC(CC3)O4)cc1)C(=O)C2 (mixture of isomers) [Example 135, (S)-1-(4-Chloro-phenyl)-2-{4-[1-hydroxy-1-(7-oxa-bicyclo[2.2.1]hept-1-yl)-ethyl]-phenyl}-7-isopropoxy-6-methoxy-1,4-dihydro-2H-isoquinolin-3-one]	0.00815	7.61
COc1cc2c(cc1OC(C)C)[C@H](c1ccc(Cl)cc1)N(c1ccc(C(C)(O)C3CC4CCC(C3)N4C(C)C)cc1)C(=O)C2 (stereo partly drawn) [Example 110, (S)-1-(4-Chloro-phenyl)-2-{4-[1-hydroxy-1-(8-isopropyl-8-aza-bicyclo[3.2.1]oct-3-yl)-ethyl]-phenyl}-7-isopropoxy-6-methoxy-1,4-dihydro-2H-isoquinolin-3-one]	0.0049	4.23
COc1cc2c(cc1OC(C)C)[C@H](c1ccc(Cl)cc1)N(c1ccc(C(C)(O)c3cccnc3)cn1)C(=O)C2 (stereo partly drawn) [Example 15, (S)-1-(4-Chloro-phenyl)-2-[5-(1-hydroxy-1-pyridin-3-yl-ethyl)-pyridin-2-yl]-7-isopropoxy-6-methoxy-1,4-dihydro-2H-isoquinolin-3-one]	0.0404	61.1
COc1cc2c(cc1OC(C)C)[C@H](c1ccc(Cl)cc1)N(c1ccc(C(C)(O)C3CCOCC3)c(F)c1)C(=O)C2 (mixture of isomers) [Example 35, (S)-1-(4-Chloro-phenyl)-2-{3-fluoro-4-[1-hydroxy-1-(tetrahydro-pyran-4-yl)-ethyl]-phenyl}-7-isopropoxy-6-methoxy-1,4-dihydro-2H-isoquinolin-3-one]	0.0025	1.48
COc1cc2c(cc1OC(C)C)[C@H](c1ccc(Cl)cc1)N(c1ccc(C(C)(O)C3CN(C(=O)N(C)C)C3)cc1)C(=O)C2 (stereo partly drawn) [Example 68, 3-(1-{4-[(S)-1-(4-Chloro-phenyl)-7-isopropoxy-6-methoxy-3-oxo-3,4-dihydro-1H-isoquinolin-2-yl]-phenyl}-1-hydroxy-ethyl)-azetidine-1-carboxylic acid dimethylamide]	0.0152	15
COc1cc2c(cc1OC(C)C)[C@H](c1ccc(Cl)cc1)N(c1ccc(C3(O)CN(S(C)(=O)=O)C3)cc1)C(=O)C2 [Example 62, (S)-1-(4-Chloro-phenyl)-2-[4-(3-hydroxy-1-methanesulfonyl-azetidin-3-yl)-phenyl]-7-isopropoxy-6-methoxy-1,4-dihydro-2H-isoquinolin-3-one]	0.342	77
COc1cc2c(cc1OC(C)C)[C@H](c1ccc(Cl)cc1)N(c1ccc(C(C)(O)C3CCN(C=O)CC3)cc1)C(=O)C2 (stereo partly drawn) [Example 89, 4-(1-{4-[(S)-1-(4-Chloro-phenyl)-7-isopropoxy-6-methoxy-3-oxo-3,4-dihydro-1H-isoquinolin-2-yl]-phenyl}-1-hydroxy-ethyl)-piperidine-1-carbaldehyde]	0.0028	2.39
COc1cc2c(cc1OC(C)C)[C@H](c1ccc(Cl)cc1)N(c1ccc([C@](C)(O)C34CCC(CC3)O4)cc1)C(=O)C2 (single isomer, unassigned) [Example 137]	0.145	25.7
COc1cc2c(cc1OC(C)C)[C@H](c1ccc(Cl)cc1)N(c1ccc(C(C)(O)C3CCN(C(=O)C4CC4)CC3)cc1)C(=O)C2 (some centres unmarked) [Example 80]	0.0052	5.11
COc1cc2c(cc1OC(C)C)[C@H](c1ccc(Cl)cc1)N(c1ccc(C(C)(O)c3ccc(F)c(F)c3)cc1)C(=O)C2 (stereo partly drawn) [Example 19, (S)-1-(4-Chloro-phenyl)-2-{4-[1-(3,4-difluoro-phenyl)-1-hydroxy-ethyl]-phenyl}-7-isopropoxy-6-methoxy-1,4-dihydro-2H-isoquinolin-3-one]	0.0446	87.2
COc1cc2c(cc1OC(C)C)[C@H](c1ccc(Cl)cc1)N(c1ccc(C(C)(O)C3CCN(C)CC3)cc1)C(=O)C2 (mixture of isomers) [Example 34, (S)-1-(4-Chloro-phenyl)-2-{4-[1-hydroxy-1-(1-methyl-piperidin-4-yl)-ethyl]-phenyl}-7-isopropoxy-6-methoxy-1,4-dihydro-2H-isoquinolin-3-one]	0.0051	5.23
COc1ccc(C(O)(c2ccc(N3C(=O)Cc4cc(OC)c(OC(C)C)cc4[C@@H]3c3ccc(Cl)cc3)cc2)C(F)(F)F)cc1 (stereo partly drawn) [Example 7, (S)-1-(4-Chloro-phenyl)-7-isopropoxy-6-methoxy-2-{4-[2,2,2-trifluoro-1-hydroxy-1-(4-methoxy-phenyl)-ethyl]-phenyl}-1,4-dihydro-2H-isoquinolin-3-one]	0.132	49.3
COc1cc2c(cc1OC(C)C)[C@H](c1ccc(Cl)cc1)N(c1ccc(C(C)(O)C3CN(C4CCN(C)CC4)C3)cc1)C(=O)C2 (stereo partly drawn) [Example 101, (S)-1-(4-Chloro-phenyl)-2-(4-{1-hydroxy-1-[1-(1-methyl-piperidin-4-yl)-azetidin-3-yl]-ethyl}-phenyl)-7-isopropoxy-6-methoxy-1,4-dihydro-2H-isoquinolin-3-one]	0.0085	9.21
